Source: ChEMBL document CHEMBL1201862, “PubChem BioAssay data set” (2004)
Calls of active or inactive are those of the source.

Legend:
[1] = target: T1, E3 ubiquitin-protein ligase XIAP (Homo sapiens, UniProt P98170); test: small molecules displacing peptide from XIAP – biochemical, IAP family, fluorescence polarization (AID 1018); type: functional
[2] = target: T1, E3 ubiquitin-protein ligase XIAP; test: Counter Screen using XIAP-Bir3 for Chemical Antagonists of Bir1/2 domains of IAP-family anti-apoptotic proteins. [Related pubchem assays (depositor defined):AID1018, AID1449, AID1514, AID1638, AID1749, AID1750, AID488957, AID488963]
Cytochrome P450 2C9 = Cytochrome P450 2C9 (Homo sapiens, UniProt P11712)
[3] = viability loss of HPDE-C7K cells – cell-based, fluorescence, HTS, primary screen (AID 431); type: functional; conditions: Homo sapiens
[4] = HPDE-C7 pancreatic duct cell viability loss – fluorescence, HTS (AID 430); type: functional, cell-based; conditions: Homo sapiens
[5] = target: DNA dC->dU-editing enzyme APOBEC-3G (Homo sapiens, UniProt Q9HC16); test: Dose Response confirmation of small molecule APOBEC3G DNA Deaminase Inhibitors via a fluorescence-based single-stranded DNA deaminase assay. [Related pubchem assays (depositor defined):AID493012, AID493028]; type: functional
[6] = target: DNA dC->dU-editing enzyme APOBEC-3A (Homo sapiens, UniProt P31941); test: A3A deaminase inhibition for selectivity – biochemical, dose response (AID 504722); type: functional
[7] = A Cell Based Secondary Assay To Explore Cytotoxicity of Compounds that Sensitize Mycobacterium Tuberculosis to Beta-Lactam Antibiotics.; type: functional
[8] = THP-1 cell cytotoxicity, dose response, cytotoxicity control for non-replicating M. tuberculosis project (AID 489025); type: functional
cells = type: functional
[9] = Vero E6 cell cytotoxicity, dose response, cytotoxicity control for non-replicating M. tuberculosis project, secondary assay (AID 492998); type: functional, VeroE6; conditions: Vero C1008
SUMO-activating enzyme = SUMO-activating enzyme (Homo sapiens, UniProt Q9UBT2); test: blockers of UBC9-mediated SUMO conjugation – biochemical, AlphaScreen, SUMOylation inhibitor project, confirmation (AID 2018); type: functional
[10] = M. tuberculosis H37Rv growth inhibitors, H37Rv strain (AID 1626); type: functional
[11] = target: T2, Replicative DNA helicase DnaB (Mycobacterium tuberculosis, UniProt P9WMR3); test: DnaB intein splicing inhibitors, dose response, biochemical, cell-free fluorescence (AID 449749); type: functional
T2 sequence (P9WMR3 whole entry): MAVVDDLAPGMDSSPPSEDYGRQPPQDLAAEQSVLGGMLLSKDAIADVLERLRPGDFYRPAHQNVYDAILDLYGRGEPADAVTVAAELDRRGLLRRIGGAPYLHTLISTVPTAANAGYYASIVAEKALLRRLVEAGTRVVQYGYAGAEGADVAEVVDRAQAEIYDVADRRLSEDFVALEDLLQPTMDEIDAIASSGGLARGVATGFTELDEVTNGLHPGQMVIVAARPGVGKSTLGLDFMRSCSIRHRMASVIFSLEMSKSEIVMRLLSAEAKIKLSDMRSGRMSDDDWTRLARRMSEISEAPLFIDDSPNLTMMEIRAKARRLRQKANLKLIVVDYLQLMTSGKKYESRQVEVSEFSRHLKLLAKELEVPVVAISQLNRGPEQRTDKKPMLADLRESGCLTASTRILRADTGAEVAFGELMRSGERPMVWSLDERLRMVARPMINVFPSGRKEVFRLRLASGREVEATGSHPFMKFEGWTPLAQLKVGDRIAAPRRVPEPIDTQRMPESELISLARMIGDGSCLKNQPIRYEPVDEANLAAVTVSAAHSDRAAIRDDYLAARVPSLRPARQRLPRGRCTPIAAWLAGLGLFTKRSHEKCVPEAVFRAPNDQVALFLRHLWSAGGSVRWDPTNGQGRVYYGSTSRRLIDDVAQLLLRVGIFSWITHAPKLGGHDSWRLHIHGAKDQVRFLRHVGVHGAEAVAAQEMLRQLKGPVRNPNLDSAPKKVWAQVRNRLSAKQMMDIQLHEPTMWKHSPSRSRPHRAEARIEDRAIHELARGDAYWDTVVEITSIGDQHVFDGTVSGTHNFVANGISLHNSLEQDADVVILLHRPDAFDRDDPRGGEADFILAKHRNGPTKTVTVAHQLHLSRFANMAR

Protein RecA = target: T3, Protein RecA (Mycobacterium tuberculosis, UniProt P9WHJ3); test: Fluorescence Cell-Free Homogeneous Dose Retest to Identify Inhibitors of RecA-Intein Splicing Activity. [Related pubchem assays (depositor defined):AID2097, AID2223, AID489010, AID492950]; type: functional
T3 sequence (P9WHJ3 whole entry): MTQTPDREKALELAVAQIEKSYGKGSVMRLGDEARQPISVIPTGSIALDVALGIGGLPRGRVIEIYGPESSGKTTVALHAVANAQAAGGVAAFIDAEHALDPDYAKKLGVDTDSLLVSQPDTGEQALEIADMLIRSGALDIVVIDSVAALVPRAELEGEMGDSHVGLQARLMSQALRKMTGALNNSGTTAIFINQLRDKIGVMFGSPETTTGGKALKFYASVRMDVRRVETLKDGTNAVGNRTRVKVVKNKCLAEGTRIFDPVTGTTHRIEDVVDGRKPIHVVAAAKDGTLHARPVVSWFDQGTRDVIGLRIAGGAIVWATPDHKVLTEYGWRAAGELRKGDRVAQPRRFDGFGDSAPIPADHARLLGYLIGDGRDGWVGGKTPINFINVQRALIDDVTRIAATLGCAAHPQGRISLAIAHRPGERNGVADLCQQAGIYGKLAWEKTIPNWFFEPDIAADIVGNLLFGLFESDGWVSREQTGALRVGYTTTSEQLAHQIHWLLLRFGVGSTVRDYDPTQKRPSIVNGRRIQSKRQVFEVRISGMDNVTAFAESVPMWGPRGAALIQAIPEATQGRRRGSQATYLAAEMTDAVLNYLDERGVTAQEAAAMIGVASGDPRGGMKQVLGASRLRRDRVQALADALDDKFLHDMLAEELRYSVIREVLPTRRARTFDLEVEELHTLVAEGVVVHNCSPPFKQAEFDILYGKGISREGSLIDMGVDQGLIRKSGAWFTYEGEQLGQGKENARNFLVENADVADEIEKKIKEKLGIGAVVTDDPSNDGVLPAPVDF

Streptococcus = test: GAS UMAA2166 growth inhibition – luminescence, BacTiterGlo, counter-screen for streptokinase expression inhibitor project, dose response (AID 1915); type: functional, organism-based;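 also: potency for reduction of bacterial viability or growth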
[12] = tested on: Streptococcus sp. 'group A'; test: Streptococcus pyogenes SK(-)GAS viability under kanamycin – luminescence, BacTiterGlo, confirmation, counter-screen for streptokinase expression inhibitor project, dose response (AID 1900); type: functional, organism-based
Hexokinase HKDC1 = target: T4, Hexokinase HKDC1 (Homo sapiens, UniProt Q2TB90); test: inhibition of HKDC1 glucose phosphorylation – biochemical, W721R variant, dose response (AID 504729); type: functional
T4 sequence (Q2TB90 whole entry): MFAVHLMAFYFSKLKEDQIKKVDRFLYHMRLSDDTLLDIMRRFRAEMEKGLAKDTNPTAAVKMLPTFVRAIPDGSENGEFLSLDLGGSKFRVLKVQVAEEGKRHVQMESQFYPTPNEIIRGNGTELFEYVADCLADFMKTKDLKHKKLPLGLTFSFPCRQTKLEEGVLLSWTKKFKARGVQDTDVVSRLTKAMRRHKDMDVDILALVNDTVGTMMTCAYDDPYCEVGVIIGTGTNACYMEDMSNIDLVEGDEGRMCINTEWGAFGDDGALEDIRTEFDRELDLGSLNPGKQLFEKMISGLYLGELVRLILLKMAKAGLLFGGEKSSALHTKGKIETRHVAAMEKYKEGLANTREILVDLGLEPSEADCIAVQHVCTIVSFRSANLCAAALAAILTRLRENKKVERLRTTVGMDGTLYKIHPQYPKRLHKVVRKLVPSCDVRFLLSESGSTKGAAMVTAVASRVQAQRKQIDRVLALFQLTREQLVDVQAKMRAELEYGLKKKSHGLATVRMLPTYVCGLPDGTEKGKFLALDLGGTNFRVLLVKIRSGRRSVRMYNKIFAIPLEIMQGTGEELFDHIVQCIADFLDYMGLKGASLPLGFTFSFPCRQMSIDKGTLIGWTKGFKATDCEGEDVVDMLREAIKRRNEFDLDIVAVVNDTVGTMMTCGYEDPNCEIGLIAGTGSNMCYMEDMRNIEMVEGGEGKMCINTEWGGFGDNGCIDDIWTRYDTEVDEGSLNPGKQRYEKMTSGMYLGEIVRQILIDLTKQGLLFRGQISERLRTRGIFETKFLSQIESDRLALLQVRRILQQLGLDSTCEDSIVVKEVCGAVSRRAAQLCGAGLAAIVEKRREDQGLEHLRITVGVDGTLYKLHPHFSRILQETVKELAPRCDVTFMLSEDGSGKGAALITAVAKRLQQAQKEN

Large T antigen = Large T antigen (Simian virus 40, UniProt P03070); type: functional, Betapolyomavirus macacae;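 also: Confirmatory-stage PubChem screen for compounds that inhibit SV40 T antigen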
fMet-Leu-Phe receptor = target: T5, fMet-Leu-Phe receptor (Homo sapiens, UniProt P21462); test: formyl peptide receptor binders – dose response (AID 519); type: functional
T5 sequence (P21462 whole entry): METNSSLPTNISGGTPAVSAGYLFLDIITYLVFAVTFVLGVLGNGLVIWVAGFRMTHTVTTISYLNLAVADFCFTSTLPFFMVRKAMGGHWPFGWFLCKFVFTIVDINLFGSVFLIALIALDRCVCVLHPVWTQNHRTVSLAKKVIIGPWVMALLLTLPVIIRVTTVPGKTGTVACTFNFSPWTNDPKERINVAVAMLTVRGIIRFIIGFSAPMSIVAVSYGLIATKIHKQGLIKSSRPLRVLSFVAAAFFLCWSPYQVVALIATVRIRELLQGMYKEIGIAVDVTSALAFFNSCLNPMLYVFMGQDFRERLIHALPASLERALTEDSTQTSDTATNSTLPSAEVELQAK

Sequence of DNA dC->dU-editing enzyme APOBEC-3G (Q9HC16 whole entry): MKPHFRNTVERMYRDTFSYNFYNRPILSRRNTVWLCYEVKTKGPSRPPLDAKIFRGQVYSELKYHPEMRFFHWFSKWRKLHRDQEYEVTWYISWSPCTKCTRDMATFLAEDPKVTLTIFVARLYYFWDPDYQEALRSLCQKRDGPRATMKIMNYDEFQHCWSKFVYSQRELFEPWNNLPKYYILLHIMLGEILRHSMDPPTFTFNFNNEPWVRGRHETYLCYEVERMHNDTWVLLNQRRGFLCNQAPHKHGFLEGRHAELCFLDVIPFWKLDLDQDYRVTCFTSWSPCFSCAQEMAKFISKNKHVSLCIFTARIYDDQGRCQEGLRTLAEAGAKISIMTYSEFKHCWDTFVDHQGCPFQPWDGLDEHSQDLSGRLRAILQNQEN
Sequence of DNA dC->dU-editing enzyme APOBEC-3A (P31941 whole entry): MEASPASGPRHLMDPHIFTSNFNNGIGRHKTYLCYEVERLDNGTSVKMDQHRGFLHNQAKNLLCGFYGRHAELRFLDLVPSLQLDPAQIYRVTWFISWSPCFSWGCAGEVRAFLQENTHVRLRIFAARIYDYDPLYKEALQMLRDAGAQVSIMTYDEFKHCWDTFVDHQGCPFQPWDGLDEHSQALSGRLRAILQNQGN
T1 sequence (P98170 whole entry): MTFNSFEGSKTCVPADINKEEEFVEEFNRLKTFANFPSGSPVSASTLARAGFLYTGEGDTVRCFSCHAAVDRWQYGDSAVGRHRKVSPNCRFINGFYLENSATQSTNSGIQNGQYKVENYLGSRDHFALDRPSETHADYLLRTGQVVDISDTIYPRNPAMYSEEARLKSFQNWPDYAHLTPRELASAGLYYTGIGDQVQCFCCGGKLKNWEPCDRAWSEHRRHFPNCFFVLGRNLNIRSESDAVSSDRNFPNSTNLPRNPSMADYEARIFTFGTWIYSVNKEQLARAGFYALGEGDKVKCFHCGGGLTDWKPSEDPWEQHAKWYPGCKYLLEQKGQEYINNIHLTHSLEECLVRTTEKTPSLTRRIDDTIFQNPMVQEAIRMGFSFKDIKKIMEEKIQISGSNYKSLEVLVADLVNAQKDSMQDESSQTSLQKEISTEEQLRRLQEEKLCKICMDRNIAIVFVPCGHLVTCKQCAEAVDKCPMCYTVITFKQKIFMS
Sequence of Cytochrome P450 2C9 (P11712 whole entry): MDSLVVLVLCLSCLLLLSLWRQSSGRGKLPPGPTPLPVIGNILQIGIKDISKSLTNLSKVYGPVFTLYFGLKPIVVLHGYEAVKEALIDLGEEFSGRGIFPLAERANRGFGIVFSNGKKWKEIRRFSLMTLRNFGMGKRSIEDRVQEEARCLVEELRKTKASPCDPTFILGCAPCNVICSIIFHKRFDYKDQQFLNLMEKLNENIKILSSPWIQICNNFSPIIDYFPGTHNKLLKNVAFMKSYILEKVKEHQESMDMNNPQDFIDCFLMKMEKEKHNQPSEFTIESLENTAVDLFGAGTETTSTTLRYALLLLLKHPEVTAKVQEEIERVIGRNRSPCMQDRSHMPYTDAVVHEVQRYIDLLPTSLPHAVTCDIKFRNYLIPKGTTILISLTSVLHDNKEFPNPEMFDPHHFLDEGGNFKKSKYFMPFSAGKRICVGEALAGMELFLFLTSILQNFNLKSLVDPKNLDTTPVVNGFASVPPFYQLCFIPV
Sequence of Large T antigen (P03070 whole entry): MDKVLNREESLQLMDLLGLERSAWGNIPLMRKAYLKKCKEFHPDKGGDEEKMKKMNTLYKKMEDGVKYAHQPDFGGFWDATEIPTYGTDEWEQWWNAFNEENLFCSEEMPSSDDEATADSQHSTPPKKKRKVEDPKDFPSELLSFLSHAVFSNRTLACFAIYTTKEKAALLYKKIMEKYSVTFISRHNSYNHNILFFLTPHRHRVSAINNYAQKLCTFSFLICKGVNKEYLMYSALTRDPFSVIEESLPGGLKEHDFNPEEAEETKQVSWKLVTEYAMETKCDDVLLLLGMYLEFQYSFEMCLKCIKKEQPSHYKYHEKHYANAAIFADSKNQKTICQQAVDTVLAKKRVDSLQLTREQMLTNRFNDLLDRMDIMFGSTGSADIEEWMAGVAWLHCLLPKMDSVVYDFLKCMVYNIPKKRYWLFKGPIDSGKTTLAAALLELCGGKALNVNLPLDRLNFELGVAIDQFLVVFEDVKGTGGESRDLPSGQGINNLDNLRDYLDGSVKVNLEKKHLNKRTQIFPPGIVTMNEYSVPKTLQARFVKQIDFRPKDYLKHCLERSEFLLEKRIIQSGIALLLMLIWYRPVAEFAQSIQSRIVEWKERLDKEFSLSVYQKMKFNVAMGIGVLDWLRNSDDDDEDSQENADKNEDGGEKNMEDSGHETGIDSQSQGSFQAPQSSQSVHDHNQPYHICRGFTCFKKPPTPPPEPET
Sequence of SUMO-activating enzyme (Q9UBE0 whole entry): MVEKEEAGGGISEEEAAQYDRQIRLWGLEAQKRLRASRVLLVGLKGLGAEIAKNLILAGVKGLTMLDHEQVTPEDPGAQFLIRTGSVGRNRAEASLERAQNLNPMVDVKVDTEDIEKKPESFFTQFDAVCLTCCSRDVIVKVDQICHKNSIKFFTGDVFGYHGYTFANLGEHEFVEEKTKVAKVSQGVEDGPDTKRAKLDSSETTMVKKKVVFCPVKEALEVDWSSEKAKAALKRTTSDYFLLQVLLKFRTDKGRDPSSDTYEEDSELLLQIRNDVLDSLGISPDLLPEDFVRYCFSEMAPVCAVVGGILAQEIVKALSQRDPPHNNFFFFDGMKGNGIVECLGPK
Sequence of SUMO-activating enzyme (Q9UBT2 whole entry): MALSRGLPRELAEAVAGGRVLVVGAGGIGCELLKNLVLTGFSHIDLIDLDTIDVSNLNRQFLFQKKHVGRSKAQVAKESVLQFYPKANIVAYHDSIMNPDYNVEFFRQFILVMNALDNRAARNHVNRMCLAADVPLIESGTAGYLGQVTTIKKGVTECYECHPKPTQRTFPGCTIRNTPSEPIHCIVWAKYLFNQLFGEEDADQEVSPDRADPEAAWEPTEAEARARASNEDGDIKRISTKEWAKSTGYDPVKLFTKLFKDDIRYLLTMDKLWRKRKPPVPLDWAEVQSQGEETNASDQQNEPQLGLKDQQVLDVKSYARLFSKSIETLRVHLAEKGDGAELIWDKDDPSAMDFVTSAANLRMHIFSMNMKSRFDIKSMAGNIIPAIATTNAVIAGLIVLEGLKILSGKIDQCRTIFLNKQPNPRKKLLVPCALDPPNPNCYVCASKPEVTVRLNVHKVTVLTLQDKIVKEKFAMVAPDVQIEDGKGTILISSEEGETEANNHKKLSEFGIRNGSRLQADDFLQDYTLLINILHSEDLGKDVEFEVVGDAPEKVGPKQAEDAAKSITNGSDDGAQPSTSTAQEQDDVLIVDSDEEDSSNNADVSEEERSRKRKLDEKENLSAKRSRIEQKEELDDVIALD

COCCn1nnnc1C(C(C)C)N(Cc1ccccc1)Cc1cc2cc(OC)ccc2nc1O (centres undefined)
IC50 [1]: > 100 µM (not active) | IC50 [2]: > 100 µM (inactive)

CS(=O)(=O)N(Cc1cc2ccccc2nc1O)C1CCCCC1
AC50 (Cytochrome P450 2C9): 39.8 µM (inconclusive) | EC50 [3]: > 20 µM (not active) | EC50 [4]: > 20 µM (not active)

CC(=O)N1CC[n+]2c(-c3ccc([N+](=O)[O-])cc3)csc21
IC50 [5]: 13.3 µM (active) | IC50 [6]: > 100 µM (inactive)

O=C(CCS(=O)(=O)c1ccc(F)cc1)Nc1nnc(-c2cccs2)o1
CC50 [7]: 24.3 µM (active)

COc1ccc(NC(=O)CCCN2C(=O)/C(=C\c3ccco3)SC2=S)cc1
IC50 [1]: > 100 µM (not active) | CC50 [8]: > 40 µM (active) | IC50 [2]: > 25 µM (inactive) | IC50 (cells): 23.4 µM (active) | CC50 [9]: 16 µM (active)

O=C1N/C(=N\c2ccc3ccccc3c2)S/C1=C/c1ccco1
IC50 (SUMO-activating enzyme): 14 µM (active)

CCOc1ccc(N2C(=O)/C(=C\c3ccc(OC)c(O)c3)S(=O)(=O)C2c2cccc([N+](=O)[O-])c2)cc1 (centres undefined)
IC50 [10]: > 100 µM (active) | AC50 [11]: 10.2 µM (active) | EC50 (Protein RecA): 6.38 µM (active)

CCCCNC(=O)c1sc(=S)n2c1[nH]c(=O)c1ccccc12
EC50 (Streptococcus): 13.1 µM (active) | EC50 [12]: 11.2 µM (active) | IC50 (Hexokinase HKDC1): 18.8 µM (active) | IC50 (Large T antigen): 79.6 µM (active) | Ki (fMet-Leu-Phe receptor): 19.6 µM (inactive)

Cc1cc(C)c(N/C=C2/C(=O)N(c3nccs3)C(=O)c3ccccc32)c(C)c1
CC50 [7]: > 40 µM (active)

CCCc1nc2oc3c(NCCOCCO)ncnc3c2c2c1COC(C)(C)C2
IC50 (Hexokinase HKDC1): 12.4 µM (active)

Cc1nn(C)c(C)c1NC(=O)CCCSc1nc(-c2ccco2)cc(C(F)(F)F)n1
CC50 [7]: > 40 µM (active)

Cn1cccc1/C=N/n1c(S)nnc1-c1ccccc1
IC50 [5]: 1.78 µM (active) | IC50 [6]: > 100 µM (inactive)

COc1ccccc1/C=C/C=N/n1c(S)nnc1-c1ccccn1
IC50 [5]: 2.67 µM (active) | IC50 [6]: > 100 µM (inactive)
